US12590063B2, “Phenol derivative” (Sumitomo Pharma Co., Ltd., priority 2020, dated 2026)
Structures can show the parent of a compound that is named as a salt. Marks after values point to notes of the source that are not given here.

Key:
normal rats [1] = assay: Evaluation of effect of increasing swallowing in normal rats; format: in vivo, rat; conditions: anesthetized normal rats; for number of swallowings, Average: pharyngeal infusion 12 ml/h for 10 seconds, counted for 30 seconds
Protocol: Test Example 5: Evaluation of Effect of Increasing Swallowing in Normal Rats
This test is for evaluating the effect of increasing swallowing function of drugs. It has been reported that induction of the swallowing reflex in normal rats using NaCl-containing water suppresses the number of swallows, and the increase in swallowing function was evaluated using a NaCl-containing solvent. After the induction of anesthesia in Crl:CD(SD) male rats (7 to 8 rats per group, 8 to 9 weeks old, body weight 280 to 310 g: at the time of arrival), the animals were sheared under the jaw with clippers and held in a supine position on a heat pad kept at 37° C. to prevent limb movement. A rat sonde was inserted into the animals' mouths, and the tip of the sonde was retained in the pharynx. Under this condition, the test substance administration solution was administered at 12 ml/h for 10 seconds using an infusion pump, and the swallowing movements were measured for 30 seconds from the initiation of administration. Note that the vehicle used was saline solution containing 1% ethanol and 0.1% Tween 80.

normal rats [2] = assay: Desensitization of effect of increasing swallowing in normal rats; format: in vivo, rat; conditions: for number of swallows, Average, First time: 1st of five administrations about 5 minutes apart; for number of swallows, Average, Second time: 2nd of five administrations about 5 minutes apart; for number of swallows, Average, Third time: 3rd of five administrations about 5 minutes apart; for number of swallows, Average, Fourth time: 4th of five administrations about 5 minutes apart; for number of swallows, Average, Fifth time: 5th of five administrations about 5 minutes apart; for number of swallows at repeated administrations compared to the 1st administration (Dunnett's test): five administrations about 5 minutes apart
Text: Test Example 6: Evaluation with Respect to Desensitization of Effect of Increasing Swallowing in Normal Rats
TRPV1 agonists are known to induce TRPV1 desensitization when given at high doses or repeatedly. Using the same method as in Test Example 5, the effect of drugs on normal swallowing function in rats to induce desensitization was investigated. After the induction of anesthesia in Crl:CD(SD) male rats (7 to 8 rats per group, 8 to 9 weeks old, body weight 280 to 310 g: at the time of arrival), the animals were sheared under the jaw with clippers and held in a supine position on a heat pad kept at 37° C. to prevent limb movement. A sonde was inserted into the animals' mouths, and the tip of the sonde was retained in the pharynx. Under this condition, the test substance administration solution was administered at 12 ml/h for 10 seconds using an infusion pump, and the swallowing movements were measured for 30 seconds from the initiation of administration. Thereafter, the same test was performed about 5 minutes later, and the evaluation was repeated for a total of five times. Note that the vehicle used was saline solution containing 1% ethanol and 0.1% Tween 80.

normal rats [3] = assay: Test for eye stimulatory properties in normal rats; format: in vivo, rat; conditions: for Number of eye-wiping (Average ± Standard deviation): 10 μL into the right eye, observed for 1 minute
Protocol: Test Example 7: Evaluation with Respect to Test for Eye Stimulatory Properties in Normal Rats
It has been reported that TRPV1 agonists have stimulatory properties and that administration of TRPV1 agonist solutions to the eye can induce wiping behavior. The stimulatory properties of the compounds were investigated using normal rats. Crl:CD(SD) male rats (5 rats per group, 8 weeks old, body weight 271 to 320 g) were held unanesthetized and 10 μL was dropped into the right eye using a micropipette.

Human TRPV1 = molecular target: T1, Human TRPV1 (Homo sapiens, UniProt Q8NER1); assay: Evaluation of agonistic properties using human TRPV1 transiently expressing cells; format: cell-based; conditions: for EC50: HEK293 cells transiently expressing human TRPV1 and apoaequorin, luminescence signal Rlu (Max-Min), read-out: TRPV1 EC50; for TRPV-1-agonistic activity (in words): evaluation test for TRPV-1-agonistic properties, summary of Tables 3 and 4
T1 construct: the TRPV1 gene (GenBank NP_542435.2) had been inserted; expressed in transfected cells; host or cells: HEK293 cells (cat #CCL-82.2, ATCC), transient transfection with pcDNA3.1
T1 sequence (Q8NER1 whole entry): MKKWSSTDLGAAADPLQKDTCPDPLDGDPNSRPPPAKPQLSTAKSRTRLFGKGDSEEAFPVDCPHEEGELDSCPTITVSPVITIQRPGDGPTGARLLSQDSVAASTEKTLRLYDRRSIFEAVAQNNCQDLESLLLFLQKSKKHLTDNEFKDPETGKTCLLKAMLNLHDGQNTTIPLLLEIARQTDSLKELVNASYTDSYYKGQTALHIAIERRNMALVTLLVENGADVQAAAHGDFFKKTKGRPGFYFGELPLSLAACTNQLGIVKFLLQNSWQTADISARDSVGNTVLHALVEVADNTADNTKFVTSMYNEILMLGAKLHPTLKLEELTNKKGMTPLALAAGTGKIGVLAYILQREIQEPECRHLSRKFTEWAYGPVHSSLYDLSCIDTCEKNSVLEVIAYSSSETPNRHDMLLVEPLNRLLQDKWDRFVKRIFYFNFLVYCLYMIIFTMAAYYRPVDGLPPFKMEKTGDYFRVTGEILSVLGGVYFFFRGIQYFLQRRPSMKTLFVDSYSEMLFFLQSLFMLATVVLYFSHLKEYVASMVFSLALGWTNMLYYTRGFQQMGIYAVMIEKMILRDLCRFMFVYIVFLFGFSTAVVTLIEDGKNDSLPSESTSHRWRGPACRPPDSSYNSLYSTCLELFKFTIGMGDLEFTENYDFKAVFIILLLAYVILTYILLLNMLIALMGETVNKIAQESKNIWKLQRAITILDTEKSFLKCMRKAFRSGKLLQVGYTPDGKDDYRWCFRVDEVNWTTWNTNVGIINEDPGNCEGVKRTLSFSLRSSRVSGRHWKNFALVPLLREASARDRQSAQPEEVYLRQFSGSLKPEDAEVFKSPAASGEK
Text: Test Example 1: Evaluation of Agonistic Properties Using Human TRPV1 Transiently Expressing Cells
(1) Generation of Human TRPV1 Transiently Expressing Cells
Human TRPV1 transiently expressing cells were generated and subjected to culture. Specifically, HEK293 cells (cat #CCL-82.2, ATCC) were used as host cells. Human TRPV1 and apoaequorin were transiently expressed by introducing the mammalian cell expression pcDNA3.1 vector (cat #v790-20, Invitrogen) into which the TRPV1 gene (GenBank NP_542435.2) had been inserted.
The Dulbecco's Modified Eagle's Medium (DMEM) medium (cat #11550-043, Thermo Fisher Scientific) containing 10% inactivated fetal bovine serum (cat #10270-106, Thermo Fisher Scientific) was used as the medium, and the culture was carried out in tissue culture dishes (cat #3020-100, Iwaki). During the culture, cells were collected every 2 to 3 days by treating with PBS containing 10% 2.5 g/1-trypsin/[…] solution, phenol red (cat #32777-44, Nacalai Tesque), and passage culture was carried out.
Three days after the passage, cells were collected with 10% trypsin-PBS treatment at a state of about 80% confluency, suspended in a DMEM medium containing 10% fetal bovine serum to 4000 cells/35 μl/well, and seeded into 384-well plates (cat #353962, FALCON).
The day after seeding, Viviren (cat #E6492, Promega) was added (15 μl/well) to a final concentration of 4.5 μM/HBSS (cat #14065-056, Thermo Fisher Scientific)/90 mM HEPES (cat #17514-15, Nacalai Tesque)/0.1% BSA (cat #01281-84, Nacalai Tesque), and after centrifugation, the samples were allowed to stand at room temperature for 2 hours under light-shielded conditions.
(2) Preparation of Test Compounds
For the test compounds, dimethyl sulfoxide solutions were produced at a concentration 1000 times the final concentration, and from these solutions, solutions at concentration 10 times the final concentration were prepared with Hanks/20 mmol/L HEPES/0.10% BSA (cat #01281-84, Nacalai Tesque).
(3) Evaluation of TRPV1-Agonistic Properties
FDSS7000 (Hamamatsu Photonics K.K.) was used for detection of TRPV1 agonist-stimulated luminescence signals. The test compounds were added to plates to which the cells and luminescent substrates had been added. The luminescence signals (center wavelength: 465 nm) after addition of the test compounds were measured, and the Rlu (Max−Min) was calculated.

Crl:CD(SD) rats = assay: Evaluation of taste aversion by drinking water; format: in vivo, rat; conditions: two-bottle choice, overnight
Protocol: Test Example 3: Evaluation of Taste Aversion by Drinking Water
This test is for evaluating the taste aversion of drugs. The test was carried out by, while keeping Crl:CD(SD) rats (8 rats per group, 8 weeks old at the time of arrival) in home cages, adding the test substance solutions to water bottles. Two water bottles per cage were prepared, each filled with vehicle (sterile water containing 0.05% ethanol) and the test substance solution, and kept overnight, and the amount of water consumed during that period was measured. The proportion of water consumed with the test substance was calculated from the total amount of water consumed from the two water bottles, and the evaluation of taste aversion was carried out. It can be evaluated that the larger the proportion of water consumed with the test substance, the smaller the taste aversion and the smaller the stimulatory properties caused by the test substance.

[4] = Evaluation test for metabolic stability to S9; format: in vitro ADME; conditions: liver S9 fraction, 37° C., 15 minutes, final compound concentration 10 nM
Protocol: Test Example 4: Evaluation Test for Metabolic Stability to S9
The compounds were added to a reaction solution in which the liver S9 fraction was diluted with phosphate buffer, and incubation was initiated at 37° C. (final compound concentration 10 nM, final volume 300 μL). After incubation for 15 minutes, the reaction was stopped by adding the reaction solution to acetonitrile, and centrifugation was carried out. After filtering the supernatant through a filter, the amount of compounds was determined using LC/MS/MS. From the amount of compounds obtained, the residual rate 15 minutes after the initiation of the reaction was calculated relative to the amount of compounds before the initiation of the reaction (0 minutes).

SMILES	number of wiping behaviors versus control (Dunnett's test) (normal rats [3]; rat, in vivo)	EC50 (Human TRPV1) [nM]	TRPV-1-agonistic activity (in words) (Human TRPV1)	proportion of water consumed with the test substance (% Vehicle) (Crl:CD(SD) rats; 1 μM in drinking water)	proportion of water consumed with the test substance (% Vehicle) (Crl:CD(SD) rats; 3 μM in drinking water)	proportion of water consumed with the test substance (% Vehicle) (Crl:CD(SD) rats; 10 μM in drinking water)	Residual rate (%) [4] [%]	number of swallowings compared to the solvent administered group (Dunnett's test) (normal rats [1])	number of swallowings, Average (normal rats [1])	number of swallows, Average, First time (normal rats [2]; 10 μM)	number of swallows, Average, Second time (normal rats [2]; 10 μM)	number of swallows, Average, Third time (normal rats [2]; 10 μM)	number of swallows, Average, Fourth time (normal rats [2]; 10 μM)	number of swallows, Average, Fifth time (normal rats [2]; 10 μM)	number of swallows at repeated administrations compared to the 1st administration (Dunnett's test) (normal rats [2])	other results
COc1cc(CC(=O)Nc2cccc([C@H]3CC[C@@H](OC(=O)C4CCCCC4)CC3)c2)ccc1O [Example 2, cis-4-{3-[2-(4-Hydroxy-3-methoxyphenyl)acetamido]phenyl}cyclohexyl cyclohexanecarboxylate]	no significant difference	4.5	stronger TRPV-1-agonistic activity	94	80	71	1	significantly increased	17.8***	–	–	–	–	–	–	–
COc1cc(CNC(=O)CCCC/C=C/C(C)C)ccc1O [Capsaicin, capsaicin, reference compound]	–	–	–	13	9	–	–	significantly increased	14.1*	18.2	13.2	14	9.7**	9.5**	significantly reduced at the 4th and 5th administrations	proportion of water consumed with the test substance (% Vehicle) (Crl:CD(SD) rats; 0.3 μM in drinking water): 71 % Vehicle; Number of eye-wiping (Average ± Standard deviation) (normal rats [3]; 1 μM): 2.0 ± 2.3; Number of eye-wiping (Average ± Standard deviation) (normal rats [3]; 3 μM): 0.2 ± 0.4; Number of eye-wiping (Average ± Standard deviation) (normal rats [3]; 10 μM): 6.4 ± 6.3; Number of eye-wiping (Average ± Standard deviation) (normal rats [3]; 30 μM): 6.4 ± 4.4; Number of eye-wiping (Average ± Standard deviation) (normal rats [3]; 100 μM): 21.4 ± 9.7; number of wiping behaviors versus control (Dunnett's test) (normal rats [3]; eye drop in unanesthetized rats): significantly increased the number of wiping behaviors at concentrations of 30 μM and more
COc1cc(CC(=O)Nc2cccc(-c3cccc(OC(=O)C(C)C)c3)n2)ccc1O [Example 1, 3-{6-[2-(4-Hydroxy-3-methoxyphenyl)acetamido]pyridin-2-yl}phenyl 2-methylpropanoate]	no significant difference	2.6	stronger TRPV-1-agonistic activity	90	66	35	<1	–	7.6	–	–	–	–	–	–	–

Continued, in another order:

number of wiping behaviors versus control (Dunnett's test) (normal rats [3]; rat, in vivo)	EC50 (Human TRPV1) [nM]	TRPV-1-agonistic activity (in words) (Human TRPV1)	proportion of water consumed with the test substance (% Vehicle) (Crl:CD(SD) rats; 1 μM in drinking water)	proportion of water consumed with the test substance (% Vehicle) (Crl:CD(SD) rats; 3 μM in drinking water)	proportion of water consumed with the test substance (% Vehicle) (Crl:CD(SD) rats; 10 μM in drinking water)	Residual rate (%) [4] [%]	SMILES	number of swallowings compared to the solvent administered group (Dunnett's test) (normal rats [1])	number of swallowings, Average (normal rats [1])	number of swallows, Average, First time (normal rats [2]; 10 μM)	number of swallows, Average, Second time (normal rats [2]; 10 μM)	number of swallows, Average, Third time (normal rats [2]; 10 μM)	number of swallows, Average, Fourth time (normal rats [2]; 10 μM)	number of swallows, Average, Fifth time (normal rats [2]; 10 μM)	number of swallows at repeated administrations compared to the 1st administration (Dunnett's test) (normal rats [2])	other results
no significant difference	–	–	–	–	–	–	COc1cc(CC(=O)Nc2ccnc(-c3cccc(OC(=O)C(C)C)c3)c2)ccc1O [Example 49, 3-{4-[2-(4-Hydroxy-3-methoxyphenyl)acetamido]pyridin-2-yl}phenyl 2-methylpropanoate hydrochloride]	significantly increased	15.0*	12.3	12.4	12.9	11.3	14.4	no significant difference	number of swallows, Average, First time (normal rats [2]; 30 μM): 17.1; number of swallows, Average, Second time (normal rats [2]; 30 μM): 13.9; number of swallows, Average, Third time (normal rats [2]; 30 μM): 14.1; number of swallows, Average, Fourth time (normal rats [2]; 30 μM): 12.4; number of swallows, Average, Fifth time (normal rats [2]; 30 μM): 12.7
–	2.3	stronger TRPV-1-agonistic activity	113	86	55	<1	COc1cc(CC(=O)Nc2ccnc(-c3cccc(OC(=O)C(C)C)c3)c2)ccc1O [Example 26, 3-{4-[2-(4-hydroxy-3-methoxyphenyl)acetamido]pyridin-2-yl}phenyl 2-methylpropanoate]	–	–	–	–	–	–	–	–	–
no significant difference	6.3	–	103	31	22	2	COc1cc(CC(=O)Nc2cccc([C@H]3CC[C@@H](OC(C)=O)CC3)c2)ccc1O [Example 12, cis-4-{3-[2-(4-hydroxy-3-methoxyphenyl)acetamido]phenyl}cyclohexyl acetate]	–	19.4**	–	–	–	–	–	–	–
